Format in all cases: binding
Test [1] deals with T1, Bcl-xL/BODIPY-BAK (Homo sapiens, UniProt Q07817, DEL26-81).
T1 construct: pET28a His-SUMO Bcl-xL (1-198, missing 26-81); His-SUMO (N, cleaved yes); made in house; host or cells: E. coli Rosetta 2
Nature of the test: Fluorescence anisotropy competition assay, inhibition of Bcl-xL/BODIPY-BAK interaction. Here is the method: (§1) To profile the binding behaviour of the constrained peptides we tested them in both competition displacement assays and direct binding assays. […] Of particular interest was the potential for the introduction of a constraint to have differential effects on protein specificity/selectivity. […] We next tested the constrained peptides in inhibition assays (Fig. 3a and b and Table 2). […]
(§2) constructs were over-expressed in the E. coli strain Rosetta 2. Cells were resuspended in 50mM TRIS pH 8.0, 500mM NaCl, 15mM Imidazole and lysed by sonication. The clarified lysate was applied to a 5ml HisTrap column equilibrated with 50mM TRIS pH 8.0, 500mM NaCl, 15mM Imidazole. The HisTrap was then washed with 10 CV of 50mM TRIS pH 8.0, 500mM NaCl, 15mM Imidazole followed by 10 CV 50mM TRIS pH 8.0, 500mM NaCl, 25mM Imidazole. The fusion proteins were eluted in 50mM TRIS pH 8.0, 500mM NaCl, 300mM Imidazole. TheHis-SUMO tag was removed in overnight in dialysis into 50mM TRIS pH 8.0, 250mM NaCl in the presence of Smt3 protease, Ulp1, overnight at 4°C. Uncleaved material and His-SUMO were removed by reapplication of the sample to a HisTrap in 50mM TRIS pH 8.0, 250mM NaCl and the flow through containing Mcl- […]
(§3) The proteins were then filtered before further purification on a Superdex 75 (GE […]
(§4) proteins were concentrated and stored at -80°C.
(§5) The assays were performed as detailed in 10, 11.
(§6) The buffers used for fluorescence anisotropy were either phosphate buffer (40 mM sodium phosphate, 200 mM sodium chloride, 0.02 mg ml-1 bovine serum albumin, pH 7.50) or Tris buffer (50 mM Tris, 140 mM sodium chloride, pH 7.50). Phosphate buffer was used for all competition assays […]
(§7) Assays were run in 96 or 384 well Optiplates and were scanned using a Perkin Elmer EnVisionTM 2103 MultiLabel plate reader. Fluorescein labelled peptides used an excitation and emission wavelength of 480 (30) nm and 535 (40) nm respectively (dichroic mirror 505 nm) whilst BODIPY labelled peptides used an excitation and emission wavelength of 531 (25) nm and 595 (60) nm respectively (dichroic mirror 555 nm), […]
(§8) Plates were read after 1 h […]
(§9) respectively. Plates were read after 1 h. […]
(§10) Processing of fluorescence anisotropy data
(§11) Fluorescence anisotropy data was processed using Microsoft Excel to calculate intensity, anisotropy […]
(§12) b (λ(rmax − r) + r − rmin) r = anisotropy, I = total intensity, P = perpendicular intensity, S = parallel intensity, Lb = fraction ligand bound, λ = Ibound/Iunbound , G = 1= instrumental factor. […]
(§13) the calculation of IC50 and EC50) or to the Kd model for the extraction of Kd values:
(§14) Where for the logisitic model; y = r = anisotropy, xo = mid-point of the curve between the rmax and rmin […]
(§15) For the Kd model; y = Lb*[FL], K = Kd, [FL] = Concentration of fluorescent ligand.
On the technique in general: Fluorescence polarisation rises when a labelled molecule tumbles more slowly, as on binding a larger partner.

In test [2] the target is T2, Mcl-1/FITC-NOXA-B (Homo sapiens, UniProt Q07820).
T2 construct: His-SUMO (N, cleaved yes); made in house; host or cells: E. coli Rosetta 2
Nature of the test: Fluorescence anisotropy competition assay, inhibition of Mcl-1/FITC-NOXA-B interaction. Here is the method:
as §1, §2, §3, §4, §5, §6, §7, §8, §9, §10, §11, §12, §13, §14, §15

In test [3] the target is T3, Bcl-xL (Homo sapiens, UniProt Q07817, DEL26-81).
T3 construct: pET28a His-SUMO Bcl-xL (1-198, missing 26-81); made in house; host or cells: E. coli Rosetta 2
Nature of the test: Surface plasmon resonance (SPR), peptides flowed over immobilised His-SUMO Bcl-xL. The conditions noted are these: SPR Biacore 3000, His-SUMO Bcl-xL on Ni-NTA chip, PBS with 0.01 mg/mL BSA, 0.1% Tween 20, 1:1 model, average of at least 3 data sets; for Kd: read-out: Bcl-xL K d; for koff: read-out: Bcl-xL k off; for kon: read-out: Bcl-xL k on. How it is done:
To investigate how the hydrocarbon constraint affects binding kinetics, we established a surface plasmon resonance (SPR) based assay. […] BID-WT and BID-MM were then flowed over the immobilised protein. […] These experiments were repeated for the BIM series of peptides.
SPR of BIM series of peptides
The binding kinetics and affinities were analysed by SPR (Biacore 3000). […]
immobilised on an Ni-NTA chip non-covalently in PBS with 0.01mg/ML BSA and 0.1% Tween 20 […]
(Running buffer). […] For the […]
the peptides were diluted into running buffer. Experiments were run at 40ul/min in running buffer.
20 minute dissociation period. The binding kinetic parameters were evaluated with BIA-Evaluation software (BIAcore 3000) in which all data sets were fit to a simple 1:1 (Langmuir) binding model. […]
(1 picture or pasted object on this page, not shown here)
For orientation: SPR reads the build-up and loss of mass on a sensor chip optically.

This note sets out measurements from paper PMC5618334, “Hydrocarbon constrained peptides – understanding preorganisation and binding affinity” (Chemical Science, 2016).

Molecules are shown by their SMILES. Where a SMILES comes first, the peptide text is derived from it. [ ]: non-standard residue; d: D form. Nle = CCCC[C@H](N)C(=O)O

T2 sequence (Q07820 172-327): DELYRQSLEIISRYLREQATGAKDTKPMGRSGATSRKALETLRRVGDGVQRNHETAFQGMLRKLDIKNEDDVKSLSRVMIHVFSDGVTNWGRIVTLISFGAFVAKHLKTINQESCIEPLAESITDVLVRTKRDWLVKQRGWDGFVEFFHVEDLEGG
T1 sequence (Q07817 with tags, fused parts or gaps DEL26-81): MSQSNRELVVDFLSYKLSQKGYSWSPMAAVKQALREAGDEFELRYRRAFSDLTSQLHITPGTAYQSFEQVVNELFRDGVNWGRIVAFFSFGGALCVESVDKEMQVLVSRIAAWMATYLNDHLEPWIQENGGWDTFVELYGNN
T3 sequence (Q07817 with tags, fused parts or gaps DEL26-81): as above

`CCCC[C@H](NC(=O)[C@]1(C)CCCC=CCCC[C@](C)(NC(=O)[C@H](C)NC(=O)[C@H](CC(C)C)NC(=O)[C@H](Cc2c[nH]cn2)NC(=O)[C@H](CCCNC(=N)N)NC(=O)[C@H](C)NC(=O)[C@@H](NC(=O)[C@H](CC(N)=O)NC(=O)[C@H](CCCNC(=N)N)NC(=O)[C@@H](NC(=O)[C@@H](NC(=O)[C@H](CC(=O)O)NC(=O)[C@H](CCC(=O)O)NC(C)=O)[C@@H](C)CC)[C@@H](C)CC)[C@@H](C)CC)C(=O)N[C@@H](C(C)C)C(=O)NCC(=O)N[C@@H](CC(=O)O)C(=O)N1)C(=O)N[C@@H](CC(=O)O)C(=O)N[C@@H](CCCNC(=N)N)C(=O)N[C@@H](CO)C(=O)N[C@H](C(=O)N[C@@H](Cc1c[nH]c2ccccc12)C(N)=O)[C@@H](C)CC` [BID-DM] showed a half-inhibitory concentration (IC50) in test [1] of 1.14 ± 0.04 µM. The IC50 in test [2] was 0.8 ± 0.07 µM. In test [3], the Kd was found to be 0.178 ± 0.052 µM, the koff was found to be 0.003 s⁻¹ and the kon was 17500 M⁻¹ s⁻¹.

The molecule `CCCC[C@H](NC(=O)[C@@H]1CCC/C=C\CCC[C@H](NC(=O)[C@H](C)NC(=O)[C@H](CC(C)C)NC(=O)[C@H](Cc2c[nH]cn2)NC(=O)[C@H](CCCNC(=N)N)NC(=O)[C@H](C)NC(=O)[C@@H](NC(=O)[C@H](CC(N)=O)NC(=O)[C@H](CCCNC(=N)N)NC(=O)[C@@H](NC(=O)[C@@H](NC(=O)[C@H](CC(=O)O)NC(=O)[C@H](CCC(=O)O)NC(C)=O)[C@@H](C)CC)[C@@H](C)CC)[C@@H](C)CC)C(=O)N[C@@H](C(C)C)C(=O)NCC(=O)N[C@@H](CC(=O)O)C(=O)N1)C(=O)N[C@@H](CC(=O)O)C(=O)N[C@@H](CCCNC(=N)N)C(=O)N[C@@H](CO)C(=O)N[C@H](C(=O)N[C@@H](Cc1c[nH]c2ccccc12)C(N)=O)[C@@H](C)CC` [BID-MM] had an IC50 in test [1] of 0.62 ± 0.02 µM. The molecule further returned an IC50 in test [2] of 1.6 ± 0.12 µM. In addition, in test [3], the Kd was 0.107 ± 0.029 µM, the koff was 0.003 s⁻¹ and the kon worked out at 31000 M⁻¹ s⁻¹.

With `CCCC[C@H](NC(=O)[C@H](CO)NC(=O)[C@H](CC(=O)O)NC(=O)CNC(=O)[C@@H](NC(=O)[C@H](CCC(N)=O)NC(=O)[C@H](C)NC(=O)[C@H](CC(C)C)NC(=O)[C@H](Cc1c[nH]cn1)NC(=O)[C@H](CCCNC(=N)N)NC(=O)[C@H](C)NC(=O)[C@@H](NC(=O)[C@H](CC(N)=O)NC(=O)[C@H](CCCNC(=N)N)NC(=O)[C@@H](NC(=O)[C@@H](NC(=O)[C@H](CC(=O)O)NC(=O)[C@H](CCC(=O)O)NC(C)=O)[C@@H](C)CC)[C@@H](C)CC)[C@@H](C)CC)C(C)C)C(=O)N[C@@H](CC(=O)O)C(=O)N[C@@H](CCCNC(=N)N)C(=O)N[C@@H](CO)C(=O)N[C@H](C(=O)N[C@@H](Cc1c[nH]c2ccccc12)C(N)=O)[C@@H](C)CC` [BID-WT, reference compound] (Ac-EDIIRNIARHLAQVGDS[Nle]DRSIW-NH2), the IC50 in test [1] was found to be 1.44 ± 0.05 µM. Moreover, the concentration for half-maximal inhibition (IC50) in test [2] was found to be 0.39 ± 0.08 µM. In test [3], the Kd was determined as 0.057 ± 0.016 µM, the koff turned out to be 0.01 s⁻¹ and the kon is 180000 M⁻¹ s⁻¹.

A word on the IC50: it is the point on the concentration scale where inhibition reaches its midpoint.
